Measurements reported in patent US10435439B2, “Peptide with safer secondary structure, peptide library, and production methods for same” (The University of Tokyo, priority 2010, dated 2019).
*1 amine or outer side, *2 acyl side, *3 side chain or, on linkers, in order; H or OH if unused. Where a SMILES comes first, the peptide text is derived from it. Bridges are numbered along the chain shown (N, C = ends). [ ]: non-standard residue; d: D form. Nle(4-yne,6-yl) = O=C([C@H](CC#CC[*:3])N[*:1])[*:2]

The molecules below were run against Bcl-2 protein having His tag on the C terminal side (Homo sapiens, UniProt P10415) (assay: Binding ability to Bcl-2 by SPR (Surface Plasmon Resonance), dissociation constant). Conditions: His-tagged Bcl-2 immobilized on Ni substrate, solid-phase synthesized peptide, KD from binding and dissociation rates.
Chain of Bcl-2 protein having His tag on the C terminal side (P10415 whole entry): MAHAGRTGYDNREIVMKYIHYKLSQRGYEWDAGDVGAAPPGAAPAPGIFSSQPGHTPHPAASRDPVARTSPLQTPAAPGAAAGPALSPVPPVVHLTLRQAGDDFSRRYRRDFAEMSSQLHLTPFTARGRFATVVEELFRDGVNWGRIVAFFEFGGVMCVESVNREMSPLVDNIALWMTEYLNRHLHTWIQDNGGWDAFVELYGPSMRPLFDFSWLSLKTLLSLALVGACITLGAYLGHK
Experimental: Next, a crosslinked peptide having the amino acid sequence as shown in the above table was synthesized by using a Fmoc solid-phase method and its binding ability was evaluated by calculating a dissociation constant (KD) in accordance with an evaluation method using SPR (Surface Plasmon Resonance).
Described specifically, first, a solution containing NiCl2 was applied on a substrate to which Ni could be bound and then Bcl-2 protein having His tag on the C terminal side thereof was applied to immobilize the protein on the substrate. Then, a solution containing a solid-phase synthesized peptide was added successively while appropriately changing the concentration. During addition, a change in refractive index depending on the weight on the substrate was read and bond strength was evaluated based on the binding rate and dissociation rate of the peptide calculated.
Work on CC[C@H](C)[C@H](NC(=O)[C@H](Cc1c[nH]cn1)NC(=O)[C@H](CCCNC(=N)N)NC(=O)[C@H](CO)NC(=O)[C@H](C)NC(=O)[C@H](CC(=O)O)NC(=O)[C@H](Cc1ccc(O)cc1)NC(=O)[C@H](CO)NC(=O)[C@H](CC(=O)O)NC(=O)[C@H](C)NC(=O)[C@H](CC(C)C)NC(=O)[C@@H]1CSCC#CC[C@H](NC(=O)[C@@H](NC(=O)[C@@H](NC(=O)[C@H](Cc2ccccc2)NC(C)=O)[C@@H](C)CC)[C@@H](C)CC)C(=O)N[C@@H](CCCNC(=N)N)C(=O)N[C@@H](Cc2ccccc2)C(=O)N[C@@H](CO)C(=O)N1)C(=O)N[C@@H](Cc1ccccc1)C(N)=O [A-5] (Ac-FII[Nle(4-yne,6-yl)]RFSCLADSYDASRHIF-NH2; thioether 4-8) yielded a Kd of 0.17 nM.
CC[C@H](C)[C@@H]1NC(=O)[C@H]([C@@H](C)O)NC(=O)[C@@H](NC(=O)[C@H](Cc2c[nH]cn2)NC(=O)[C@@H]2CCCN2C(=O)[C@H](Cc2ccccc2)NC(C)=O)CC#CCSC[C@@H](C(=O)N[C@@H](CCCNC(=N)N)C(=O)N[C@@H](C)C(=O)N[C@@H](CC(=O)O)C(=O)N[C@@H](CO)C(=O)N[C@@H](Cc2ccc(O)cc2)C(=O)N[C@@H](CC(=O)O)C(=O)N[C@@H](CO)C(=O)N[C@@H](Cc2ccc(O)cc2)C(=O)N[C@H](C(=O)N[C@@H](CCCNC(=N)N)C(=O)N[C@@H](CC(C)C)C(=O)N[C@@H](C)C(=O)N[C@@H](C)C(=O)N[C@H](C(=O)N[C@@H](Cc2ccccc2)C(=O)N[C@@H](CC(C)C)C(N)=O)[C@@H](C)O)C(C)C)NC(=O)[C@H](C)NC1=O [A-1] (Ac-FPH[Nle(4-yne,6-yl)]TIACRADSYDSYVRLAATFL-NH2; thioether 4-8) showed a Kd of 0.37 nM.
CC(=O)N[C@@H](Cc1ccccc1)C(=O)N[C@@H](Cc1ccccc1)C(=O)N[C@@H](CC(N)=O)C(=O)N[C@@H](CCCNC(=N)N)C(=O)N[C@@H](Cc1c[nH]cn1)C(=O)N[C@@H](CC(N)=O)C(=O)N[C@@H](CC(N)=O)C(=O)N[C@@H](C)C(=O)N[C@@H](Cc1ccc(O)cc1)C(=O)N[C@@H](Cc1ccc(O)cc1)C(=O)N[C@H](C(=O)N[C@H]1CC#CCSC[C@@H](C(=O)N[C@@H](CC(C)C)C(=O)NCC(=O)N[C@@H](CCCNC(=N)N)C(=O)N[C@@H](CC(C)C)C(=O)N[C@@H](Cc2ccc(O)cc2)C(=O)N[C@@H](CCCNC(=N)N)C(=O)N[C@@H](CC(C)C)C(=O)N[C@@H](CC(C)C)C(N)=O)NC(=O)[C@H](C)NC(=O)[C@H](Cc2ccc(O)cc2)NC(=O)CNC1=O)[C@@H](C)O [A-4] (Ac-FFNRHNNAYYT[Nle(4-yne,6-yl)]GYACLGRLYRLL-NH2; thioether 12-16) gave a Kd of over 0.1 nM.
For CC(=O)N[C@@H](Cc1ccccc1)C(=O)N[C@@H](CC(C)C)C(=O)N[C@@H](CC(N)=O)C(=O)N[C@@H](CCCNC(=N)N)C(=O)N[C@@H](Cc1c[nH]cn1)C(=O)N[C@@H](CC(N)=O)C(=O)N[C@@H](CC(N)=O)C(=O)N[C@@H](C)C(=O)N[C@@H](Cc1ccc(O)cc1)C(=O)N[C@@H](Cc1ccc(O)cc1)C(=O)N[C@H](C(=O)N[C@H]1CC#CCSC[C@@H](C(=O)N[C@@H](CC(C)C)C(=O)NCC(=O)N[C@@H](CCCNC(=N)N)C(=O)N[C@@H](CC(C)C)C(=O)N[C@@H](Cc2ccc(O)cc2)C(=O)N[C@@H](CCCNC(=N)N)C(=O)N[C@@H](CC(C)C)C(=O)N[C@@H](CC(C)C)C(N)=O)NC(=O)[C@H](C)NC(=O)[C@H](Cc2ccc(O)cc2)NC(=O)CNC1=O)[C@@H](C)O [A-3] (Ac-FLNRHNNAYYT[Nle(4-yne,6-yl)]GYACLGRLYRLL-NH2; thioether 12-16), the Kd was over 0.1 nM.
